Where “and” joins values, the source holds several entries; their conditions need not be identical. Identical values can stand only once. Toxic doses and inconclusive results are not listed.
Test system: L1210 leukemia ip in BDF1 mice, survival T/C
Assay: NCI In Vivo Anticancer Drug Screen. Data for tumor model L1210 Leukemia (intraperitoneal) in B6D2F1 (BDF1) mice
Conditions: endpoint: mean survival time, higher = longer survival
Procedure, shortened: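 Each compound was tested against a transplantable tumor grown in mice. The endpoint was survival, with treated animals benchmarked against vehicle controls as a simple ratio.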

[1] = dose: 100.0 mg/kg/injection, schedule: Q01DX001 (ip), vehicle: saline
[2] = dose: 200.0 mg/kg/injection, schedule: Q01DX001 (ip), vehicle: saline
[3] = dose: 400.0 mg/kg/injection, schedule: Q01DX009 (ip), vehicle: saline
[4] = dose: 100.0 mg/kg/injection, schedule: Q01DX009 (ip), vehicle: saline with Tween-80
[5] = dose: 200.0 mg/kg/injection, schedule: Q01DX009 (ip), vehicle: saline with Tween-80
[6] = dose: 100.0 mg/kg/injection, schedule: Q04DX003 (ip), vehicle: Klucel (hydroxypropylcellulose) (HPC)
[7] = dose: 200.0 mg/kg/injection, schedule: Q04DX003 (ip), vehicle: Klucel (hydroxypropylcellulose) (HPC)
[8] = dose: 400.0 mg/kg/injection, schedule: Q04DX003 (ip), vehicle: Klucel (hydroxypropylcellulose) (HPC)
[9] = dose: 100.0 mg/kg/injection, schedule: Q01DX009 (ip), vehicle: Klucel (hydroxypropylcellulose) (HPC)
[10] = dose: 200.0 mg/kg/injection, schedule: Q01DX009 (ip), vehicle: Klucel (hydroxypropylcellulose) (HPC)

CN(C)CC(=O)Nc1ccc(NC(=O)c2ccc(C(=O)Nc3ccc(NC(=O)CN(C)C)cc3)cc2)cc1
T/C (dose: 15.0 mg/kg/injection, schedule: Q01DX Z (ip), vehicle: methylcellulose (MC)): 104 % of control
T/C (dose: 30.0 mg/kg/injection, schedule: Q01DX Z (ip), vehicle: methylcellulose (MC)): 106 % of control
T/C (dose: 60.0 mg/kg/injection, schedule: Q01DX Z (ip), vehicle: methylcellulose (MC)): 93 % of control
T/C (dose: 120.0 mg/kg/injection, schedule: Q01DX Z (ip), vehicle: methylcellulose (MC)): 95 % of control

O=C1C2Nc3ccccc3CC2CN1Cc1ccccc1 (stereo not drawn)
T/C (dose: 10.0 mg/kg/injection, schedule: Q04DX003 (ip), vehicle: alcohol): 106 % of control
T/C (dose: 20.0 mg/kg/injection, schedule: Q04DX003 (ip), vehicle: alcohol): 99 % of control
T/C (dose: 40.0 mg/kg/injection, schedule: Q04DX003 (ip), vehicle: alcohol): 99 % of control
T/C (dose: 80.0 mg/kg/injection, schedule: Q04DX003 (ip), vehicle: alcohol): 97 % of control
T/C (dose: 160.0 mg/kg/injection, schedule: Q04DX003 (ip), vehicle: alcohol): 100 % of control

O=C(O)C1C(C(=O)O)C2(c3ccccc3)c3ccccc3C12 (stereo not drawn)
T/C (dose: 9.38 mg/kg/injection, schedule: Q01DX001 (ip), vehicle: other): 92 % of control
T/C (dose: 18.75 mg/kg/injection, schedule: Q01DX001 (ip), vehicle: other): 92 % of control
T/C (dose: 37.5 mg/kg/injection, schedule: Q01DX001 (ip), vehicle: other): 102 % of control

CC1CC(C)NC(=O)N1 (stereo not drawn)
T/C (dose: 50.0 mg/kg/injection, schedule: Q04DX002 (ip), vehicle: saline with Tween-80): 98 % of control
T/C (dose: 100.0 mg/kg/injection, schedule: Q04DX002 (ip), vehicle: saline with Tween-80): 94 % of control
T/C (dose: 200.0 mg/kg/injection, schedule: Q04DX002 (ip), vehicle: saline with Tween-80): 91 % of control
T/C (dose: 400.0 mg/kg/injection, schedule: Q04DX002 (ip), vehicle: saline with Tween-80): 98 % of control

CC(=O)OC12C=CC(C(C)=C1)C1C(=O)C=CC(=O)C12 (stereo not drawn)
T/C [1]: 103 % of control
T/C (dose: 100.0 mg/kg/injection, schedule: Q01DX009 (ip), vehicle: saline): 98 % of control
T/C (dose: 100.0 mg/kg/injection, schedule: Q04DX003 (ip), vehicle: saline): 103 % of control
T/C [2]: 97 % of control
T/C (dose: 200.0 mg/kg/injection, schedule: Q01DX009 (ip), vehicle: saline): 89 % of control
T/C (dose: 200.0 mg/kg/injection, schedule: Q04DX003 (ip), vehicle: saline): 103 % of control
T/C (dose: 400.0 mg/kg/injection, schedule: Q01DX001 (ip), vehicle: saline): 97 % of control
T/C [3]: 90 % of control
T/C (dose: 400.0 mg/kg/injection, schedule: Q04DX003 (ip), vehicle: saline): 87 % of control

CC(=O)OC(C)(C)/C=C/C(=O)[C@](C)(O)[C@H]1[C@H](O)C[C@@]2(C)[C@@H]3CC=C4[C@@H](C[C@H](O)C(=O)C4(C)C)[C@]3(C)C(=O)C[C@]12C
T/C (dose: 0.12 mg/kg/injection, schedule: Q01DX009 (ip), vehicle: saline): 88 % of control
T/C (dose: 0.12 mg/kg/injection, schedule: Q04DX003 (ip), vehicle: saline): 98 % of control
T/C (dose: 0.16 mg/kg/injection, schedule: Q01DX Z (ip), vehicle: saline): 100 % of control
T/C (dose: 0.25 mg/kg/injection, schedule: Q01DX001 (ip), vehicle: saline): 92 % of control
T/C (dose: 0.25 mg/kg/injection, schedule: Q01DX009 (ip), vehicle: saline): 100 % of control
T/C (dose: 0.25 mg/kg/injection, schedule: Q01DX Z (ip), vehicle: saline): 113 % of control
T/C (dose: 0.25 mg/kg/injection, schedule: Q04DX003 (ip), vehicle: saline): 102 % of control
T/C (dose: 0.38 mg/kg/injection, schedule: Q01DX Z (ip), vehicle: saline): 103 % of control
T/C (dose: 0.4 mg/kg/injection, schedule: Q01DX Z (ip), vehicle: carboxymethylcellulose (CMC)): 93 % of control and 103 % of control
T/C (dose: 0.5 mg/kg/injection, schedule: Q01DX001 (ip), vehicle: saline): 98 % of control
T/C (dose: 0.5 mg/kg/injection, schedule: Q01DX009 (ip), vehicle: saline): 103 % of control
T/C (dose: 0.5 mg/kg/injection, schedule: Q04DX003 (ip), vehicle: saline): 106 % of control
T/C (dose: 0.57 mg/kg/injection, schedule: Q01DX Z (ip), vehicle: saline): 103 % of control
T/C (dose: 0.8 mg/kg/injection, schedule: Q01DX Z (ip), vehicle: carboxymethylcellulose (CMC)): 108 % of control

COC(=O)c1ccc2c(c1)NP(=O)(c1ccccc1)S2 (stereo not drawn)
T/C (dose: 75.0 mg/kg/injection, schedule: Q01DX001 (ip), vehicle: saline): 98 % of control
T/C (dose: 150.0 mg/kg/injection, schedule: Q01DX001 (ip), vehicle: saline): 104 % of control
T/C (dose: 300.0 mg/kg/injection, schedule: Q01DX001 (ip), vehicle: saline): 98 % of control

[N-]=[N+]=C1N=NC=C1C(N)=O
T/C (dose: 50.0 mg/kg/injection, schedule: Q01DX001 (ip), vehicle: saline): 98 % of control
T/C [1]: 107 % of control
T/C [2]: 107 % of control

C=C(C)COc1c(Cl)cc(Cl)cc1C=Nc1ccccc1
T/C (dose: 50.0 mg/kg/injection, schedule: Q01DX009 (ip), vehicle: saline with Tween-80): 101 % of control
T/C (dose: 100.0 mg/kg/injection, schedule: Q01DX001 (ip), vehicle: saline with Tween-80): 94 % of control
T/C [4]: 90 % of control
T/C (dose: 200.0 mg/kg/injection, schedule: Q01DX001 (ip), vehicle: saline with Tween-80): 89 % of control
T/C [5]: 104 % of control

NC(=O)C(N)CCO (stereo not drawn)
T/C (dose: 75.0 mg/kg/injection, schedule: Q04DX003 (ip), vehicle: saline): 104 % of control
T/C (dose: 150.0 mg/kg/injection, schedule: Q04DX003 (ip), vehicle: saline): 104 % of control
T/C (dose: 300.0 mg/kg/injection, schedule: Q04DX003 (ip), vehicle: saline): 100 % of control

C[Si](C)(C)Oc1ccccc1[Si](C)(C)c1ccccc1
T/C [6]: 101 % of control
T/C [7]: 98 % of control
T/C [8]: 102 % of control

C/C=C/C=C/C(=O)NO
T/C (dose: 50.0 mg/kg/injection, schedule: Q01DX009 (ip), vehicle: Klucel (hydroxypropylcellulose) (HPC)): 93 % of control
T/C (dose: 62.0 mg/kg/injection, schedule: Q03HX024 (ip), vehicle: saline): 101 % of control
T/C [9]: 102 % of control
T/C (dose: 125.0 mg/kg/injection, schedule: Q03HX024 (ip), vehicle: saline): 94 % of control
T/C (dose: 177.0 mg/kg/injection, schedule: Q01DX009 (ip), vehicle: carboxymethylcellulose (CMC)): 117 % of control
T/C (dose: 177.0 mg/kg/injection, schedule: Q01DX009 (ip), vehicle: saline): 94 % of control
T/C [10]: 104 % of control
T/C (dose: 266.0 mg/kg/injection, schedule: Q01DX009 (ip), vehicle: saline): 117 % of control
T/C [3]: 121 % of control
T/C (dose: 600.0 mg/kg/injection, schedule: Q01DX009 (ip), vehicle: saline): 165 % of control

COc1ccc(C2NC(=S)N3C(c4ccc(OC)c(OC)c4)NC(=S)N23)cc1OC (stereo not drawn)
T/C (dose: 100.0 mg/kg/injection, schedule: Q01DX009 (ip), vehicle: gum acacia): 88 % of control
T/C (dose: 100.0 mg/kg/injection, schedule: Q04DX003 (ip), vehicle: gum acacia): 95 % of control
T/C (dose: 200.0 mg/kg/injection, schedule: Q01DX009 (ip), vehicle: gum acacia): 88 % of control
T/C (dose: 200.0 mg/kg/injection, schedule: Q04DX003 (ip), vehicle: gum acacia): 89 % of control
T/C (dose: 400.0 mg/kg/injection, schedule: Q01DX009 (ip), vehicle: gum acacia): 90 % of control

O=C(CNc1ccccc1)NCc1ccccc1
T/C [4]: 92 % of control
T/C [5]: 95 % of control
T/C (dose: 400.0 mg/kg/injection, schedule: Q01DX009 (ip), vehicle: saline with Tween-80): 97 % of control

CC1(CCl)OCCO1
T/C [9]: 91 % of control
T/C [6]: 100 % of control
T/C [10]: 96 % of control
T/C [7]: 101 % of control
T/C [8]: 98 % of control

CCc1ccc(N=Nc2ccc(N)cc2)cc1
T/C (dose: 100.0 mg/kg/injection, schedule: Q01DX001 (ip), vehicle: carboxymethylcellulose (CMC)): 101 % of control
T/C (dose: 200.0 mg/kg/injection, schedule: Q01DX001 (ip), vehicle: carboxymethylcellulose (CMC)): 89 % of control
T/C (dose: 400.0 mg/kg/injection, schedule: Q01DX001 (ip), vehicle: carboxymethylcellulose (CMC)): 93 % of control

Clc1cc(Cl)c2nc(Cl)c3ccccc3c2c1
T/C [9]: 100 % of control
T/C [6]: 95 % of control
T/C [10]: 92 % of control
T/C [7]: 90 % of control
T/C (dose: 400.0 mg/kg/injection, schedule: Q01DX009 (ip), vehicle: Klucel (hydroxypropylcellulose) (HPC)): 100 % of control
T/C [8]: 93 % of control

— PubChem BioAssay AID248 (DTP/NCI, 2004)
